Laboratory results: patent publication US8921595B2, “Protein Arginine Deiminase inhibitors as novel therapeutics for rheumatoid arthritis and cancer” (University of South Carolina, priority 2009, dated 2014)

Columns and labels:
HL-60 cells [1] = test: Cytotoxicity / cell viability (CellTiter 96); format: cell-based, human; settings: 24 h
Description: To further evaluate the […] effects of these compounds, their ability to inhibit the growth of HL60 cells, a leukemic cell line, was characterized. […] Such finding prompted further investigation into this phenomenon and led to the discovery that for the HL-60 cell line, the cells that remained viable were actually being differentiated into non-cancerous granulocytes. Evidence of this differentiation includes the increased expression of PAD4 (FIG. 6).
HL-60 human promyelocytic leukemia cells were obtained from the ATCC (Manassas, Va.). The cells were cultured in RPMI 1640 media supplemented with 10% FBS and 1% Pencillin-Streptomycin, in a 5% CO2 incubator at 37° C. MCF-7 cells were cultured in DMEM media supplemented with 10% FBS and 1% Penicillin-Streptomycin, in a 5% CO2 incubator at 37° C.
HL-60 and MCF-7 cells were grown to confluence (1×10^6 cells/mL) in the appropriate media. […] Cell viability was determined using the CellTiter 96 Non-radioactive Cell Proliferation Assay (Promega). Cell viability was quantified as the percentage of control absorbance. […] When possible, EC50 values were determined by fitting the dose response data to equation 2 using GraFit (version 5.0.11)^33, Fractional Activity=1/(1+([1]/EC50) (eq 2) where [I] is the concentration of inhibitor (e.g., doxorubicin) and EC50 is the concentration of inhibitor that yields half-maximal cell survival. Western Blotting.

HL-60 cells [2] = test: Combination with doxorubicin, HL-60 cell viability; format: cell-based, human; settings: for effects of doxorubicin in combination: HL-60 cells, combination with doxorubicin; for viability of cancer cells in combination with doxorubicin: in conjunction with doxorubicin
Protocol: Although o-F- and o-Cl-amidine show some efficacy for killing cancer derived cells, the overall effects are modest. In light of such results, these inhibitors were tested in a combination with doxorubicin, a known chemotherapeutic that is used for the treatment of numerous cancers, often as part of a combination therapy. In accordance with the present disclosure, the additive effects of doxorubicin was tested with varying concentrations of both o-F- and o-Cl-amidine on HL-60 cell viability.
HL-60 and MCF-7 cells were grown to confluence (1×10^6 cells/mL) in the appropriate media. 50 μL of the MCF-7 cells were plated into each well of a 96 well plate with 40 μL of DMEM. Cells were allowed to adhere to the plate for 15 h at 37° C. and 5% CO2. For the HL-60 cells, 90 μL of the cells were added to each well of a 96 well plate. o-F-amidine, o-Cl-amidine, doxorubicin, or ATRA (10 μL, 100 nM to 100 μM) were added to the plates and allowed to incubate with the cells for 24 h. Cell viability was determined using the CellTiter 96 Non-radioactive Cell Proliferation Assay (Promega). Cell viability was quantified as the percentage of control absorbance. Each condition was performed in triplicate. The use of 1% triton served as a 100% killing control. When possible, EC50 values were determined by fitting the dose response data to equation 2 using GraFit (version 5.0.11)^33, Fractional Activity=1/(1+([1]/EC50) (eq 2) where [I] is the concentration of inhibitor (e.g., doxorubicin) and EC50 is the concentration of inhibitor that yields half-maximal cell survival. Western Blotting.

SMILES	cell viability in HL-60 cells (HL-60 cells [1])	effects of doxorubicin in combination (HL-60 cells [2])	viability of cancer cells in combination with doxorubicin (HL-60 cells [2])
N=C(CCl)NCCC[C@H](NC(=O)c1ccccc1C(=O)O)C(N)=O [o-Cl-amidine, N-α-(2-carboxyl)benzoyl-N^5-(2-chloro-1-iminoethyl)-L-ornithine amide]	reduce cell viability	potentiated	reduced to levels that are undetectable above the background signal
N=C(CF)NCCC[C@H](NC(=O)c1ccccc1C(=O)O)C(N)=O [o-F-amidine, N-α-(2-carboxyl)benzoyl-N^5-(2-fluoro-1-iminoethyl)-L-ornithine amide]	reduce cell viability	potentiated	reduced to levels that are undetectable above the background signal
